# Measurements taken from patent US20220184056A1, “USE OF KDM5A GENE AND ATRX GENE” (SHENZHEN CHIPSCREEN BIOSCIENCES, CO., LTD., priority 2019, published 2022).
# Where “and” joins values, the source holds several entries; their conditions need not be identical. Identical values can stand only once.
# What was measured:
# SCLC = details: topotecan combined optimal supportive treatment vs optimal supportive treatment alone; cited from earlier work
# [1] = system: relapsed and refractory small cell lung cancer; test: Phase Ib clinical trial of Chiauranib monotherapy for relapsed and refractory small cell lung cancer, with ctDNA biomarker study (KDM5A, ATRX); type: in vivo, human
# Procedure: According to the present invention, a phase Ib clinical trial of using Chiauranib capsules to treat relapsed and refractory small cell lung cancer was carried out, and a concomitant study of efficacy-related biomarkers for 548 tumor-related genes was carried out by detecting and analyzing plasma free tumor DNA (ctDNA). Blood samples were taken from all patients before enrollment, and gene sequences of tumor-related genes were detected, including gene mutations and copy number abnormalities. According to detection results, genes with mutation rates of more than 0.4% were all selected, and progression free survival (PFS) and objective response rates (ORR) of patients were taken as efficacy indicators to analyze the correlation between tumor-related gene abnormalities and the efficacy of Chiauranib.
# Test drug: Chiauranib capsules, with specifications of 5 mg and 25 mg. They were manufactured by Shenzhen Chipscreen Biosciences Co., Ltd.
# Dosing regimen: the Chiauranib capsules were administered QD at 50 mg/day (not adjusted according to the body weight or the body surface area). The capsules were taken on an empty stomach every morning with water, and the whole capsules were swallowed completely. Continuous administration for 28 days was one treatment cycle, and there was no interval during each treatment cycle.
# Number of cases: 25 patients were enrolled.
# The test subjects took 50 mg of Chiauranib capsules orally once daily, every 28 days was taken as one treatment cycle, and there was no withdrawal interval during the treatment cycles. All subjects received continuous treatment throughout the trial period until any one of the following occurred (whichever occurred first): progressed disease, intolerable toxicity, death, withdrawal of the informed consent, or loss to follow-up.
# Efficacy evaluation: according to the RECIST 1.1 criteria, evaluations were respectively performed in the baseline period and at the end of the 4th week after treatment, and repeated every 8 weeks until a progressive disease occurred. Tumor imageological examinations included CT or MRI of neck, chest, whole abdomen, and pelvic cavity. Other site examinations should be performed as necessary according to clinical indications. The same technologies and methods should be used for baseline of lesions and subsequent evaluation and measurement.
# 10 mL of peripheral blood was taken before the subjects took Chiauranib for the first time and when a progressive disease occurred, gene sequences of plasma free tumor DNA (ctDNA) and leukocyte extracted DNA (control) were detected, a total of 548 tumor-related genes were included, and detection results included gene mutations and copy number abnormalities, as well as analysis of tumor mutation burden (TMB).
# Plasma free tumor DNA (ctDNA) of the evaluated patients was detected and analyzed, and a concomitant study of efficacy-related biomarkers for the 548 tumor-related genes was carried out. According to detection results, genes with mutation rates of more than 0.4% were all selected, and progression free survival (PFS) and objective response (PR) of the patients were taken as efficacy indicators to analyze the correlation between tumor-related gene abnormalities and the efficacy of Chiauranib.
Compound,"Overall survival, quality of life, improvement of symptoms (SCLC)",efficacy of monotherapy in the treatment of small cell lung cancer ([1]; 50 mg QD oral),"benefit rate ([1]; 20 evaluated patients, 50 mg QD oral) [%]","ORR ([1]; 20 evaluated patients, 50 mg QD oral, RECIST 1.1) [%]","Non-response (SD + PD), number of patients ([1]; ATRX mutation (6 patients)) [patients]","Non-response (SD + PD), share of patients ([1]; ATRX mutation (6 patients)) [%]","Objective response (PR), number of patients ([1]; ATRX mutation (6 patients)) [patients]","Objective response (PR), share of patients ([1]; ATRX mutation (6 patients)) [%]","Non-response (SD + PD), number of patients ([1]; ATRX wild type (14 patients)) [patients]","Non-response (SD + PD), share of patients ([1]; ATRX wild type (14 patients)) [%]","Objective response (PR), number of patients ([1]; ATRX wild type (14 patients)) [patients]","Objective response (PR), share of patients ([1]; ATRX wild type (14 patients)) [%]","PFS Hazard ratio (HR) ([1]; KDM5A wild type vs mutation, P value 0.0087)",patients with best efficacy evaluation being partial response (PR) ([1]; among 20 evaluated patients) [patients],"PFS, Median (95% CI) ([1]; patients with KDM5A gene mutation (n = 8))","PFS, Median (95% CI) ([1]; patients with wild-type KDM5A gene (n = 12))"
CC[C@@]1(O)C(=O)OCc2c1cc1n(c2=O)Cc2cc3c(CN(C)C)c(O)ccc3nc2-1 [topotecan],significantly better,,,,,,,,,,,,,,,
"COc1ccc2c(Oc3ccc4c(C(=O)Nc5ccccc5N)cccc4c3)ccnc2c1 [Chiauranib, N-(2-aminophenyl)-6-(7-methoxyquinolin-4-oxy)-1-naphthamide]",,effective,60,20,2,33.3,4,66.7,14,100.0,0,0,"16.5 (2.03, 133.37)",4,"145 days and 145.0 (23.0, 145.0) days","27.5 days and 27.5 (16.0, 61.0) days"
